In data set [1] the target is T1, PARP5A (Homo sapiens, UniProt O95271).
T1 construct: purchased BPS 80504
Briefly: Determination of PARP5A enzyme (histone-coated plate, Biotin-NAD+). It is filed as biochemical. As to the method: • 1.3.1 Preparation of buffer solution solution: PBST: 1x PBS, 0.05% Tween-20; blocking solution: 1x PBS, 0.05% Tween-20, 5% BSA; reaction buffer solution: 50 mM HEPES (pH 7.5), 0.002% Tween-20, 0.1% BSA, 100 mM NaCl, 2mM DTT. • 1.3.2 Coating: A 100 ng/mL Histone coating solution was prepared by using 1x PBS, 25 uL of the coating solution was transferred to a 384-well reaction plate, and the reaction plate was coated overnight at 4°C. • 1.3.3 Washing: After the coating was completed, the coating solution was discarded, and the reaction plate was washed with the PBST solution by means of transferring 50uL of the PBST solution to the 384-well reaction plate, letting it stand for 5 min, discarding the washing solution, refilling the reaction plate with the PBST solution, and repeating the washing process 3 times. Finally, the reaction plate was tapped dry and the next step of blocking was proceeded with. • 1.3.4 Blocking: 50 uL of the blocking solution was transferred to the 384-well reaction plate and set for 1 h. • 1.3.5 Washing: After the blocking was completed, the blocking solution was discarded, the reaction plate was washed 3 times with the PBST solution according to the method in Step 2, and the reaction plate was tapped dry. • 1.3.6 A 25/10× PARP5A solution was prepared, then 10 µL of the PARP5A solution was transferred to the 384-well reaction plate. For negative control wells, 10 µL of the reaction buffer solution instead was transferred, resulting in the final concentration of PARP5A of 10 nM. • 1.3.7 A 2,000x compound was prepared, 50 nL of the compound was transferred to with echo, 19.95 uL of the reaction buffer solution was added into the compound, mix well, and 5 uL of the mixed compound was transferred to the 384-well reaction plate. • 1.3.8 A 25/10x Biotin-NAD+ solution was prepared, 10uL of the Biotin-NAD+ solution was transferred to the 384-well reaction plate, resulting in a final Biotin-NAD+ concentration of 2uM, and incubated at room temperature for 60 min. • 1.3.9 Washing: After the reaction was completed, the reaction liquid was discarded. The reaction plate was washed 3 times with the PBST solution according to the method in Step 2, and the reaction plate was tapped dry. • 1.3.10 A Stre-HRP solution was prepared by means of diluting it with the blocking solution, 25uL of the Stre-HRP solution was transferred to the reaction plate, and incubated at room temperature for 1 h, resulting the final concentration of Stre-HRP of 0.1 µg/mL. • 1.3.11 Washing: The Stre-HRP solution was discarded, the reaction plate was washed 3 times with the PBST solution according to the method in Step 2, and the reaction plate was tapped dry. • 1.3.12 Color developing: Femto-ECL Substrate A, Femto-ECL Substrate B, and QuantaRed ADHP were mixed in a 50:50:1 ratio.

Data set [2] has as its system BRCA wild-type DLD-1 cells. Briefly: Anti-proliferative activity assay of cell (CCK8), DLD-1. It is filed as cell-based. To be noted: Homo sapiens; BRCA wild-type DLD-1 cells, 72 h + 96 h, CCK8; read-out: DLD-1 IC50.
In data set [3] the target is T2, PARP2 (Homo sapiens, UniProt Q9UGN5).
T2 construct: purchased BPS 80502
Briefly: Determination of PARP2 enzyme (histone-coated plate, Biotin-NAD+). It is filed as biochemical. The following applies: read-out: PARP-2 IC50. As to the method: • 1.2.1 Preparation of buffer solution: PBST: 1x PBS, 0.05% Tween-20; blocking solution: 1x PBS, 0.05% Tween-20, 5% BSA; reaction buffer solution: 50 mM HEPES (pH 7.5), 0.002% Tween-20, 0.1% BSA, 100 mM NaCl, 2mM DTT. • 1.2.2 Coating: A 100 ng/mL Histone coating solution was prepared by using 1x PBS, 25 uL of the coating solution was transferred to a 384-well reaction plate, and the reaction plate was coated overnight at 4°C. • 1.2.3 Washing: After the coating was completed, the coating solution was discarded, and the reaction plate was washed with the PBST solution by means of transferring 50uL of the PBST solution to the 384-well reaction plate, letting it stand for 5 min, discarding the washing solution, refilling the reaction plate, and repeating the washing process 3 times. Finally, the reaction plate was tapped dry and the next step of blocking was proceeded with. • 1.2.4 Blocking: 50 uL of the blocking solution was transferred to the 384-well reaction plate and set for 1 h. • 1.2.5 Washing: After the blocking was completed, the blocking solution was discarded, the reaction plate was washed 3 times with the PBST solution according to the method in Step 2, and the reaction plate was tapped dry. • 1.2.6 A 25/10× PARP2 solution was prepared, then 10 µL of the PARP2 solution was transferred to the 384-well reaction plate.

The nature of data set [4]: Pharmacokinetic evaluation of compound in Balb/c mice. It is filed as in vivo. The following applies: 1 mg/kg, PO; for AUC(0-t) / Cmax / half-life: male, mouse, plasma. As to the method:
Sample preparation: About 0.2 mg of the compound was dissolved in 10 µL DMSO, then a sodium chloride injection was added to make a 0.1 mg·mL^-1 solution of the compound for administration.
Three mice were administered the compound intravenously (IV) at a dose of 1 mg·kg^-1, and the other three were administered the compound orally (PO) at the same dose. […] The plasma concentration of the drug was quantitatively analyzed with the LC-MS/MS method, and pharmacokinetic parameters were calculated, including the […] (Cmax), area under the concentration-time curve (AUC(0-t)), half-life (T1/2), clearance (CL), volume of distribution at steady state (Vdss), and bioavailability (F).

For data set [5], the target named is PARP1 (Homo sapiens, UniProt P09874). Briefly: Determination of PARP1 enzyme (histone-coated plate, chemiluminescence). The format is biochemical.

Values joined by “and” are separate entries in the source; they are usually repeats but may differ in a detail not shown here. Equal entries are not always repeated. Where two headings read alike, the source gives them in different places. A value given as a limit tells only on which side of the number the result lay.

PARP1, sequence (P09874 whole entry): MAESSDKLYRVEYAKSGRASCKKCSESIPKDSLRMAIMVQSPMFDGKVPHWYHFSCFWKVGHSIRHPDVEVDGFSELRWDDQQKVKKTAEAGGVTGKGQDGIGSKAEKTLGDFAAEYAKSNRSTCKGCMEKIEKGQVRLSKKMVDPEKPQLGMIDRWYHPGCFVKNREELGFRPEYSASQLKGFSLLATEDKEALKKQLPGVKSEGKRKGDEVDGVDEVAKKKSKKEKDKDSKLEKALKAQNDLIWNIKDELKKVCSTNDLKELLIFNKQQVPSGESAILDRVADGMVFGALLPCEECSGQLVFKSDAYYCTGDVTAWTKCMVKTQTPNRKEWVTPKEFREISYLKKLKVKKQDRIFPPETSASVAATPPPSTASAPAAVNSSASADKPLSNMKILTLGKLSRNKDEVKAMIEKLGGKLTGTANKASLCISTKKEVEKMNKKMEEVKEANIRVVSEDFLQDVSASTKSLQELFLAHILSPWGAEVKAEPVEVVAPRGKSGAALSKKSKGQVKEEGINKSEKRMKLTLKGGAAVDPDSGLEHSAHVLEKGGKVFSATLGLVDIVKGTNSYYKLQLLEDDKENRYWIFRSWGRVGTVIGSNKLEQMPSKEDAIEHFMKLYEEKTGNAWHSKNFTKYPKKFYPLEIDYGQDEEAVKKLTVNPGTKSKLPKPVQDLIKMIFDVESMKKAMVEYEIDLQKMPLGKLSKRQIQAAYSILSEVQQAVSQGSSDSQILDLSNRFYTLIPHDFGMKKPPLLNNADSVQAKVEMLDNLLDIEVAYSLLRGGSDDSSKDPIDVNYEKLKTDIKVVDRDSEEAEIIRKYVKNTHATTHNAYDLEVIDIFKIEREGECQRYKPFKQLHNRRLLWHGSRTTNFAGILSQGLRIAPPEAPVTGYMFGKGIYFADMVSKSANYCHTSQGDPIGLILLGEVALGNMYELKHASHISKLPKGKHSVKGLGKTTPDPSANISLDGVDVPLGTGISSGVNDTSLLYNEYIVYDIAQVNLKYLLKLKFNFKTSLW
T2 sequence (Q9UGN5 whole entry): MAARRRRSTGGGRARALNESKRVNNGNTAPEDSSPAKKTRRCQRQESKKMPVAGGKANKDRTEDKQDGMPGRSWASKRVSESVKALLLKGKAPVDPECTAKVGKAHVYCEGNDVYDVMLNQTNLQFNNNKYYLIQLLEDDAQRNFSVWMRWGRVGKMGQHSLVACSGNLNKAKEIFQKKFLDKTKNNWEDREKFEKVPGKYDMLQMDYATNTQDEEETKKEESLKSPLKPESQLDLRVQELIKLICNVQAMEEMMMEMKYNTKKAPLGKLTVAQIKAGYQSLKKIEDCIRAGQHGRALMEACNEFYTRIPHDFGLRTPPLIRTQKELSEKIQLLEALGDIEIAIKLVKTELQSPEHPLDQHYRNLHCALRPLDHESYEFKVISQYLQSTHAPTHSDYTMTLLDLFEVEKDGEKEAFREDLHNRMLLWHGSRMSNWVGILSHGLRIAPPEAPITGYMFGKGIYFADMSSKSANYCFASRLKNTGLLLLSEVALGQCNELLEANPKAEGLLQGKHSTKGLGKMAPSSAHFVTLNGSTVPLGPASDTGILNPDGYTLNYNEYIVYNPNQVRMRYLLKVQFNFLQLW
T1 sequence (O95271 1001-1327): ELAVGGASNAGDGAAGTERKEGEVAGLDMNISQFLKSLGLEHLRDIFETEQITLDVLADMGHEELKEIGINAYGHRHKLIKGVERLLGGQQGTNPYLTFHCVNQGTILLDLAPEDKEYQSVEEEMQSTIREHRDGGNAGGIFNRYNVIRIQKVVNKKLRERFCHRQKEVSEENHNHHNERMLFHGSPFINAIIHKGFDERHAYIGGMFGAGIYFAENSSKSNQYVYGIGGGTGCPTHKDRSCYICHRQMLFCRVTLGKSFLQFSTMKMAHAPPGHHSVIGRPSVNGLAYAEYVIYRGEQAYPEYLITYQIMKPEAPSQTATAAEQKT

For orientation: IC50 means the point on the concentration scale where inhibition reaches its midpoint. Broadly, the AUC(0-t) is the area under the concentration-time curve up to a stated or last time point. Read a low AUC(0-t) as less exposure. By Cmax is commonly meant the peak of the concentration-time curve. What is called half-life is the time needed for the level to fall by half in the phase considered. On to `[2H]C([2H])([2H])C([2H])([2H])c1cc2ncc(CN3CC=C(c4ccc(C(=O)NC5CC5)nc4)CC3)cc2[nH]c1=O` [Compound 12, N-cyclopropyl-1'-((7-(ethyl-d5)-6-oxo-5,6-dihydro-1,5-naphthyridin-3-yl)methyl)-1',2',3',6'-tet rahydro-[3,4'-bipyridine]-6-carboxamide], for which, in data set [1] (read-out: PARP-5a IC50), the IC50 is above 1000 nM. Also, in data set [2], the IC50 was above 10000 nM. Besides, in data set [3], the IC50 is above 1000 nM. In data set [4], this compound showed a CL of 2.5 mL/min/kg, a Vdss of 0.70 L/kg, an AUC(0-t) of 6950 ng·h/mL and a Cmax of 2290 ng/mL. The compound further gave a half-life in data set [4] of 3.87 h. Also, in data set [5], the PARP-1 inhibition ratio is 99.8% and 99.9%.
As for `[2H]C([2H])([2H])NC(=O)c1ccc(C2=CCN(Cc3cnc4cc(C([2H])([2H])C([2H])([2H])[2H])c(=O)[nH]c4c3)CC2)cn1` [Compound 11, 1'-((7-(ethyl-d5)-6-oxo-5,6-dihydro-1,5-naphthyridin-3-yl)methyl)-N (methyl-d3)-1',2',3',6'-tet rahydro-[3,4'-bipyridine]-6-carboxamide], the IC50 in data set [1] (read-out: PARP-5a IC50) and in data set [3] was above 1000 nM in each case.
`[2H]C([2H])([2H])NC(=O)c1ccc(C2=CCN(Cc3ccc4nc(CC)c(=O)[nH]c4c3F)CC2)cn1` [Compound 4, 1'-((2-Ethyl-5-fluoro-3-oxo-3,4-dihydroquinoxalin-6-yl)methyl)-N-(methyl-d3)-1',2',3',6'-tetra hydro-[3,4'-bipyridine]-6-carboxamide]: the IC50 in data set [2] is above 10000 nM. In data set [4], this compound came in with a CL of 0.17 mL/min/kg, a Vdss of 0.14 L/kg, an AUC(0-t) of 122000 ng·h/mL and a Cmax of 7370 ng/mL. Also, the half-life in data set [4] is 11.5 h.
For `[2H]C([2H])([2H])NC(=O)c1ccc(C2=CCN(Cc3cnc4cc(CC)c(=O)[nH]c4c3)CC2)c(F)n1` [Compound 10, 1'-((7-ethyl-6-oxo-5,6-dihydro-1,5-naphthyridin-3-yl)methyl)-2-fluoro-N-(methyl-d3)-1',2',3', 6'-tetrahydro-[3,4'-bipyridine]-6-carboxamide], the IC50 in data set [2] was above 10000 nM. In data set [4], this compound gave a Vdss of 0.15 L/kg, an AUC(0-t) of 44600 ng·h/mL, a Cmax of 3840 ng/mL and a half-life of 4.64 h.
For the compound `[2H]C([2H])([2H])C([2H])([2H])c1nc2ccc(CN3CC=C(c4ccc(C(=O)NC)nc4)CC3)c(F)c2[nH]c1=O` [Compound 13, 1'-((2-(ethyl-d5)-5-fluoro-3-oxo-3,4-dihydroquinoxalin-6-yl)methyl)-N-methyl-1',2',3',6'-tetra hydro-[3,4'-bipyridine]-6-carboxamide], the IC50 in data set [1] was above 1000 nM; in data set [2], above 10000 nM; in data set [3], above 1000 nM. Further, the PARP-1 inhibition ratio in data set [5] is 96.1% and 98.5%.
On to `[2H]C([2H])([2H])C([2H])([2H])c1nc2ccc(CN3CC=C(c4ccc(C(=O)NC)nc4F)CC3)c(F)c2[nH]c1=O` [Compound 14, 1'-((2-(ethyl-d5)-5-fluoro-3-oxo-3,4-dihydroquinoxalin-6-yl)methyl)-2-fluoro-N-methyl-1',2',3 '6'-tetrahydro-[3,4'-bipyridine]-6-carboxamide], for which the IC50 in data set [1] (read-out: PARP-5a IC50) is above 1000 nM; in data set [2], above 10000 nM; in data set [3] it was above 1000 nM. The values for the PARP-1 inhibition ratio in data set [5] (10 nM) and in data set [5] (100 nM) were 98.9% and 99.1%, respectively.
For `[2H]C([2H])([2H])Cc1cc2ncc(CN3CC=C(c4ccc(C(=O)NC)nc4)CC3)cc2[nH]c1=O` [Compound 16, 1'-((7-(ethyl-2,2,2-d3)-6-oxo-5,6-dihydro-1,5-naphthyridin-3-yl)methyl)-N-methyl-1',2',3',6'-t etrahydro-[3,4'-bipyridine]-6-carboxamide], the IC50 in data set [1] (read-out: PARP-5a IC50) and in data set [3] was above 1000 nM each time.

For the origin of these results see EP4606801A1, “FUSED HETEROCYCLIC COMPOUND AND USE THEREOF” (Chengdu Zenitar Biomedical Technology Co., Ltd., priority 2022, dated 2024).
